Experiments:
[1] = test system: BGC (human gastric cancer cells); experiment: Antitumor screening in vitro, MTT assay, BGC; assay type: cell-based; details: 48 hours
Description: (§1) Cell lines: BGC (human gastric cancer cells), A375 (human malignant melanoma cells), 769-P (human renal carcinoma cells), KB (human oral epidermoid carcinoma cells), SK-OV-3 (human ovarian cancer cells), etc, were selected, and the test method was the MTT assay. Cisplatin was as a positive control.
(§2) Specific methods are as follows: cells growing well in the logarithmic phase were seeded in 96-well plates at a concentration of 1×10^4 cells/ml, and then were placed in 37° C., containing 5% CO2 incubator for 24 hours. After discarding the old solution, changed fresh medium, and added sterilization treatment compound, and then cultured for 48 hours. After discarding the culture medium, 20 ul RPMI1640 medium containing 5 mg/ml MTT were added to each well in 96-well plates and cells were cultured for 4 hours. After the supernatant was carefully removed, 100 μl DMSO was added to each well, and the plates were Oscillated about 10 min to dissolve the precipitate, followed by detecting OD value in wavelength 490 nm by the microplate reader. Cell survival rate for each sample concentrations was determined by the following formula: The mean survival rate %=the average OD value of sample group/the average OD value of control group×100%
(§3) Morphological studies by mapping with the logarithm of the drug concentration and the mean survival rate % of each sample to obtain IC50 values for each sample.

[2] = test system: A375 (human malignant melanoma cells); experiment: Antitumor screening in vitro, MTT assay, A375; assay type: cell-based
Description: as §1, §2, §3

[3] = test system: 769-P (human renal carcinoma cells); experiment: Antitumor screening in vitro, MTT assay, 769-P; assay type: cell-based; details: 48 hours, 769-P cells
Description: as §1, §2, §3

[4] = test system: KB (human oral epidermoid carcinoma cells); experiment: Antitumor screening in vitro, MTT assay, KB; assay type: cell-based; details: 48 hours
Description: as §1, §2, §3

[5] = test system: SK-OV-3 (human ovarian cancer cells); experiment: Antitumor screening in vitro, MTT assay, SK-OV-3; assay type: cell-based; details: 48 hours, SK-OV-3 cells
Description: as §1, §2, §3

in vivo = details: both, Kunming, mouse, in vivo, ip
Description: (§4) Solvent: 0.9% saline and 0.5% CMC-Na solution. According to pre-test results, design 5 dose gradient for each sample, dose spacing was 0.8 times. […] Experimental volume is 0.5 ml/20 g mouse. A single intraperitoneal administration is used. Kunming mice were taken and grouped randomly by gender, and intraperitoneal administration according to dose designation was set to observe the immediate reaction after administration in mice. Dead animals were dissected to observe, surviving animals continued to observe two weeks, and the animal deaths in two weeks were recorded. After two weeks, surviving animals were dissected, observed substantial organ lesions, and the organs having substantive lesions were further for histological examination. According to the number of deaths in each group of animals, calculating the median lethal dose (LD50 value) by Bliss method, and further, calculating the maximum tolerated dose (MTD) for less toxic compounds.

Kunming mice = experiment: Acute toxicity test in mice (LD50); details: Kunming mice, single intraperitoneal administration, observed two weeks, Bliss method
Description: as §4

Compound	IC50 ([1]; Homo sapiens)	IC50 ([2]; Homo sapiens, A-375, 48 hours)	IC50 ([3]; Homo sapiens)	IC50 ([4]; Homo sapiens)	IC50 ([5]; Homo sapiens)	LD50 at 2 weeks (in vivo)	IC50 [1]	IC50 ([2]; 48 hours)	IC50 [3]	IC50 [4]	IC50 [5]	acute toxicity LD50 (Kunming mice)	melting point
COc1ccc2c3ccnc(C)c3n(CCCCCCCn3c4cc(OC)ccc4c4ccnc(C)c43)c2c1 [Compound 17, 1,7-bis(7-methoxy-1-methyl-β-carboline-9-yl) heptane]	> 300 µM	35.3 µM	> 300 µM	155 µM	11.7 µM	200 mg/kg	–	–	–	–	–	–	–
Cc1nccc2c3ccccc3n(CCCCn3c4ccccc4c4ccnc(C)c43)c12 [Compound 7, 1,4-bis(1-methyl-β-carboline-9-yl) butane]	22.3 µM	13.1 µM	6.5 µM	6.4 µM	4.8 µM	200 mg/kg	–	–	–	–	–	–	–
Cc1nccc2c3ccccc3n(CCCCCCCCn3c4ccccc4c4ccnc(C)c43)c12 [Compound 11, 1,8-bis(1-methyl-β-carboline-9-yl) octane]	> 300 µM	> 300 µM	3.1 µM	> 300 µM	> 300 µM	200 mg/kg	–	–	–	–	–	–	–
Cc1nccc2c3ccccc3n(CCCCCCn3c4ccccc4c4ccnc(C)c43)c12 [Compound 9, 1,6-bis(1-methyl-β-carboline-9-yl) hexane]	> 300 µM	> 300 µM	51.7 µM	> 300 µM	96.8 µM	200 mg/kg	–	–	–	–	–	–	–
COc1cc(-c2nccc3c4ccccc4n(CCCCCCn4c5ccccc5c5ccnc(-c6cc(OC)c(OC)c(OC)c6)c54)c23)cc(OC)c1OC [Compound 19, 1,6-bis[1-(3,4,5-trimethoxy)phenyl-β-carboline-9-yl) hexane]	–	–	–	–	–	–	> 300 µM	5.9 µM	16.8 µM	> 300 µM	> 300 µM	200 mg/kg	–
Cc1nccc2c3ccc(OC(C)C)cc3n(CCCCCCCCCn3c4cc(OC(C)C)ccc4c4ccnc(C)c43)c12 [Compound 26, 1,9-bis(7-isopropoxy-1-methyl-β-carboline-9-yl) nonane]	> 300 µM	43.3 µM	40 µM	112 µM	101 µM	200 mg/kg	–	–	–	–	–	–	–
c1ccc2c(c1)c1ccnc(-c3ccsc3)c1n2CCCCCCCCn1c2ccccc2c2ccnc(-c3ccsc3)c21 [Compound 34, 1,8-bis[1-(3-thienyl)-β-carboline-9-yl) octane]	> 300 µM	32.1 µM	> 300 µM	> 300 µM	> 300 µM	250 mg/kg	–	–	–	–	–	–	–
CCOC(=O)c1cc2c3ccccc3n(CCCCCCn3c4ccccc4c4cc(C(=O)OCC)nc(-c5cc(OC)c(OC)c(OC)c5)c43)c2c(-c2cc(OC)c(OC)c(OC)c2)n1 [Compound 27, 1,6-bis[1-(3,4.5-trimethoxy)phenyl-β-carboline-β-ethyoxylcarbonyl-9-yl]hexane]	–	–	–	–	–	–	–	–	–	–	–	300 mg/kg	–
COc1ccc2c3ccnc(C)c3n(CCCCn3c4cc(OC)ccc4c4ccnc(C)c43)c2c1 [Compound 14, 1,4-bis(7-methoxy-1-methyl-β-carboline-9-yl) butane]	75.7 µM	6.2 µM	65.6 µM	2.8 µM	7.1 µM	50 mg/kg	–	–	–	–	–	–	–
Cc1nccc2c3ccccc3n(CCCCCCCCCCn3c4ccccc4c4ccnc(C)c43)c12 [Compound 13, 1,10-bis(1-methyl-β-carboline-9-yl) decane]	> 300 µM	> 300 µM	16.2 µM	> 300 µM	8.5 µM	–	–	–	–	–	–	–	152 to 154 °C
Cc1nccc2c3ccccc3n(CCCCCCCCCn3c4ccccc4c4ccnc(C)c43)c12 [Compound 12, 1,9-bis(1-methyl-β-carboline-9-yl) nonane]	> 300 µM	67.2 µM	291 µM	> 300 µM	61.9 µM	–	–	–	–	–	–	–	155 to 156 °C
c1ccc2c(c1)c1ccncc1n2CCCCn1c2ccccc2c2ccncc21 [Compound 1, 1,4-bis(β-carboline-9-yl) butane]	59.7 µM	> 300 µM	199 µM	> 300 µM	> 300 µM	200 mg/kg	–	–	–	–	–	–	–
Cc1nccc2c3cc(Br)ccc3n(CCCCCCn3c4ccc(Br)cc4c4ccnc(C)c43)c12 [Compound 22, 1,6-bis(6-bromo-1-methyl-β-carboline-9-yl) hexane]	> 300 µM	> 300 µM	> 300 µM	> 300 µM	63.4 µM	200 mg/kg	–	–	–	–	–	–	–
CC(C)c1nccc2c3ccccc3n(CCCCCCn3c4ccccc4c4ccnc(C(C)C)c43)c12 [Compound 39, 1,6-bis(1-isopropyl-β-carboline-9-yl) hexane]	> 300 µM	53.5 µM	18.5 µM	253 µM	31.8 µM	–	–	–	–	–	–	–	241 to 242 °C
